Test results from patent publication US20080227684A1, “Small Molecule Inhibitors of PDZ Interactions” (priority 2005, published 2008).
pIC50: −log10 of the molar value.

What was measured:
Experiment in all cases: Matrix modified G-assay, small molecule competition titration
Magi1 d1 = biological target: T1, Magi1 d1 (Homo sapiens, UniProt Q96QZ7); conditions: competition with biotinylated PL peptide at GST-PDZ fusion protein; read-out: IC50 Magi1 d1 (relative binding affinity by titration analysis)
T1 construct: made in house
T1 sequence (Q96QZ7 472-554 limits assumed): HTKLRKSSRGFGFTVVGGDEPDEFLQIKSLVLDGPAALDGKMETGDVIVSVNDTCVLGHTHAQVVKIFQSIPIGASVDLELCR
Description: (§1) Small Molecule Competition Assay. The reagents, supplies and protocol are as follows:
(§2) Reagents and Supplies: • (1) Nunc Maxisorp 96 well Immuno-plates • (2) PBS pH 7.4 (phosphate buffered saline, 8 g NaCl, 0.29 g KCl, 1.44 g Na2HPO4, 0.24 g • (3) KH2PO4, add H2O to 1 L and pH 7.4; 0.2μ filter) • (4) Assay Buffer: 2% BSA in PBS (20 g of BSA per liter PBS), ICN Biomedicals • (5) Goat anti-GST polyclonal antibody, stock 5 mg/ml, stored at 4° C., (Amersham Pharmacia); Diluted 1:1000 in PBS to a final concentration 5 μg/ml • (6) HRP-Streptavidin, 2.5 mg/2 ml stock stored @ 4° C., Zymed,- dilute 1:2000 into Assay buffer, final [0.5 μg/ml] • (7) Biotinylated peptides (from Anaspec, stored in −20° C. freezer) • (8) GST-PRISM proteins (stock stored @ −80° C., after 1st thaw store in −10° C. freezer) • (9) TMB (3,3′,5,5′, teramethylbensidine), ready to use • (10) 0.18M H2SO4 • (11) 12-w multichannel pipettor • (12) 200 μl LTS tips • (13) 50 ml reagent reservoirs • (14) 50 polypropylene conical tubes • (15) 15 ml polypropylene round-bottom tubes • (16) 1.5 ml microtubes • (17) Molecular Devices microplate reader (450 nm filters) • (18) SoftMax Pro software • (19) Assay buffer (1×PBS, 0.01% Triton X-100)
(§3) Protocol. The wells of eighteen to twenty 96-well plates were coated with 100 μl of 5 μg/ml anti-GST antibody (in each well), and left overnight at 4° C. The plates were then emptied by inverting and tapped dry on paper towels. 200 μl of blocking buffer (1×PBS/2% BSA) was added to each well and the plates were left for 1-2 hrs at room temperature. […] GST-PDZ fusion proteins were diluted to a final concentration of 5 μg/ml in 1×PBS/2% BSA and 50 μl was added to each well. After incubating for 1-2 hours at 4° C. excess unbound fusion protein was removed by washing, i.e., using the automatic plate washer (3× with room temperature 1×PBS).
(§4) PDZ ligand peptides, small molecule test compounds, and HRP were prepared in Assay Buffer as follows: • Biotinylated PDZ ligand synthetic peptides were prepared in one-quarter final volume, i.e., at 4× final concentration; • Steptavidin-HRP conjugate (Zymed) was diluted (1:500) in one-quarter final volume, i.e., at 4× final concentration; • Biotinylated peptides and Streptavidin-HRP were then mixed together, and incubated for 20 min at room temperature to form a signal generating peptide ligand complex; • While the peptide/HRP mix was incubating, test compound dilutions were prepared in half the final volume, i.e., at 2× final concentration; and, • Immediately before adding the final peptide ligand complex mixture to the plate, the drug titration was added to give a mixture with 1× concentrations and the final correct total volume. The signal generating peptide ligand/test compound mixtures were then added to each well of the plates to give 50 μl per well and the time of each addition was recorded. The plates were then incubated at room temperature, after the last peptide had been added, for exactly 30 min. After incubation, the plates were washed using the automatic plate washer (7× with room temperature 1×PBS). To detect the signal generating peptide ligand TMB substrate (for HRP) was added to each well of the plates at 100 μl per well and the time of TMB addition was recorded. The plates were then incubated in the dark at room temperature for a maximum of 30 min. The calorimetric reaction was then stopped using 100 μl of 0.18M H2SO4 30 minutes after adding TMB. The signal in each well of the plates were then determined by measuring the optical density at 450 nm.
(§5) The relative binding affinities of the compounds in FIG. 2A, and other, small molecule inhibitors were determined by titrating the compounds in the same competitive binding assay.

Tip1 = biological target: T2, Tip1 (Homo sapiens, UniProt O14907); conditions: competition with biotinylated PL peptide at GST-PDZ fusion protein; read-out: IC50 Tip1 (relative binding affinity by titration analysis)
T2 construct: made in house
T2 sequence (O14907 15-112 limits assumed): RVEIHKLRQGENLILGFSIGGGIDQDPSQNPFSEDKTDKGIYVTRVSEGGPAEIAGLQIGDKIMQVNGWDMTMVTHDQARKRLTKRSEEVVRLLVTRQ
Description: as §1, §2, §3, §4, §5

PSD95 d1 = biological target: T3, PSD95 d1 (Homo sapiens, UniProt P78352); conditions: competition with biotinylated PL peptide at GST-PDZ fusion protein; read-out: IC50 PSD95 d1 (relative binding affinity by titration analysis)
T3 construct: made in house
Description: as §1, §2, §3, §4, §5

PSD95 d2 = biological target: T4, PSD95 d2 (Homo sapiens, UniProt P78352); conditions: competition with biotinylated PL peptide at GST-PDZ fusion protein; read-out: IC50 PSD95 d2 (relative binding affinity by titration analysis)
T4 construct: made in house
Description: as §1, §2, §3, §4, §5

Shank 1 = biological target: T5, Shank 1 (Homo sapiens, UniProt Q9Y566); conditions: competition with biotinylated PL peptide at GST-PDZ fusion protein; read-out: IC50 Shank 1 (relative binding affinity by titration analysis)
T5 construct: made in house
T5 sequence (Q9Y566 663-757 limits assumed): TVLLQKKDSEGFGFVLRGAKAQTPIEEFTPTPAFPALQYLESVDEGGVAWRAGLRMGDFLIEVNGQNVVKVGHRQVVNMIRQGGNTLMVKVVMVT
Description: as §1, §2, §3, §4, §5

PSD95 d3 = biological target: T6, PSD95 d3 (Homo sapiens, UniProt P78352); conditions: competition with biotinylated PL peptide at GST-PDZ fusion protein; read-out: IC50 PSD95 d3 (relative binding affinity by titration analysis)
T6 construct: made in house
Description: as §1, §2, §3, §4, §5

SMILES | pIC50 (Magi1 d1) | pIC50 (Tip1) | pIC50 (PSD95 d1) | pIC50 (PSD95 d2) | pIC50 (Shank 1) | pIC50 (PSD95 d3)
CCOc1ccc(NS(=O)(=O)c2cccc(C(=O)Nc3ccccc3C(=O)O)c2)cc1 [Compound 3019-0348] | < 3.60 | < 3.60 | < 3.60 | < 3.60 | < 3.60 | < 3.60
COc1cccc(-c2nc3c(c(SCC(=O)Nc4cccc(C(=O)O)c4)n2)Cc2c(CO)cnc(C)c2O3)c1 [Compound E544-0129] | 4.22 | < 3.60 | 5.60 | 5.30 | 5.12 | 5.46
O=C(NCCO)C(=O)Nc1ccccc1C(=O)O [MC 247808] | < 3.60 | < 3.60 | < 3.60 | 3.66 | < 3.60 | < 3.60
Cc1ccc([N+](=O)[O-])cc1NC(=O)c1cc(S(=O)(=O)Nc2cccc(C(=O)O)c2)c(Cl)cc1Cl [Compound 8009-5039] | < 3.60 | < 3.60 | < 3.60 | < 3.60 | < 3.60 | < 3.60
CC(=O)N1CCc2cc(S(=O)(=O)NC(Cc3ccccc3)C(=O)Nc3ccccc3C(=O)O)ccc21 (stereo not drawn) [Compound C450-0454] | < 3.60 | < 3.60 | 3.69 | < 3.60 | < 3.60 | < 3.60
O=C(Nc1ccccc1C(=O)O)c1cccc(NC(=O)C(c2ccccc2)c2ccccc2)c1 [Compound 3289-2331] | 3.88 | < 3.60 | < 3.60 | < 3.60 | < 3.60 | < 3.60
CCOc1ccc(NS(=O)(=O)c2cc(C(=O)Nc3ccccc3C(=O)O)ccc2C)cc1 [Compound 3558-0042] | < 3.60 | < 3.60 | < 3.60 | < 3.60 | < 3.60 | < 3.60
